Experimental data: patent publication US20100298141A1, “SUBSTITUTED PYRIDINE N-OXIDE HERBICIDES” (E. I. DU PONT DE NEMOURS AND COMPANY, priority 2007, published 2010)

How the values were obtained:
redroot pigweed = assay: Test A pre-/postemergence greenhouse test; format: in vivo, Amaranthus retroflexus; conditions: for Plant response rating, Pigweed: 0 to 100 scale where 0 is no effect and 100 is complete control; for Pigweed plant response rating: 0 to 100 scale
Outline: (§1)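 Sowing in loam/sand; same-day pre (directed soil spray) and post (foliar, 1–2 leaf, 2–10 cm) treatment with surfactant-containing non-phytotoxic solvent formulation; ~10 days in greenhouse; eye-scored injury against untreated plants.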

corn = assay: Test A pre-/postemergence greenhouse test; format: in vivo, Zea mays; conditions: for Plant response rating, Corn: 0 to 100 scale where 0 is no effect and 100 is complete control; for Corn plant response rating: 0 to 100 scale
Outline: as §1

blackgrass = assay: Test C pre-/postemergence test; format: in vivo, Alopecurus myosuroides
Outline: (§2)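 Seeds were planted and treated preemergence with test chemical in a non-phytotoxic solvent mixture containing surfactant. Postemergence applications of the same formulation went onto plants 2 to 18 cm tall (1- to 4-leaf stage). A dash marks no test result.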

wheat = assay: Test C pre-/postemergence test; format: in vivo, Triticum aestivum
Outline: as §2

wild oat = assay: Test C pre-/postemergence test; format: in vivo, Avena fatua
Outline: as §2

catchweed bedstraw = assay: Test C pre-/postemergence test; format: in vivo, Galium aparine; conditions: for Plant response rating, Galium: 31 g ai/ha, scale 0 to 100 (0 no effect, 100 complete control)
Outline: as §2

bermudagrass = assay: Test C pre-/postemergence test; format: in vivo, Cynodon dactylon
Outline: as §2

Surinam grass = assay: Test C pre-/postemergence test; format: in vivo, Brachiaria decumbens
Outline: as §2

crabgrass = assay: Test C pre-/postemergence test; format: in vivo, Digitaria sanguinalis
Outline: as §2

kochia = assay: Test C pre-/postemergence test; format: in vivo, Kochia scoparia
Outline: as §2

eastern black nightshade = assay: Test C pre-/postemergence test; format: in vivo, Solanum ptycanthum
Outline: as §2

pigweed = assay: Test C pre-/postemergence test; format: in vivo, Amaranthus retroflexus
Outline: as §2

[1] = tested on: common (oilseed) sunflower; assay: Test C pre-/postemergence test; format: in vivo, Helianthus annuus; conditions: for Plant response rating, Sunflower: 31 g ai/ha, scale 0 to 100 (0 no effect, 100 complete control)
Outline: as §2

velvetleaf = assay: Test C pre-/postemergence test; format: in vivo, Abutilon theophrasti
Outline: as §2

rice = assay: Test C flooded paddy test; format: in vivo, Oryza sativa; conditions: Flood
Outline: (§3)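 Under a constant 3 cm flood, test compounds went directly into the paddy water. Following 13 to 15 days of greenhouse growth, treated species and controls were compared by eye.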

duck salad = assay: Test C flooded paddy test; format: in vivo, Heteranthera limosa; conditions: Flood
Outline: as §3

barnyardgrass = assay: Test C flooded paddy test; format: in vivo, Echinochloa crus-galli; conditions: Flood
Outline: as §3

[2] = Postemergence, 500 g ai/ha, 0 is no effect, 100 is complete control
[3] = Preemergence, 125 g ai/ha, 0 no effect, 100 complete control
[4] = 62 g ai/ha, Preemergence, scale 0 to 100
[5] = 125 g ai/ha, preemergence, scale 0 (no effect) to 100 (complete control)
[6] = Postemergence, 62 g ai/ha, scale 0 to 100, 0 no effect, 100 complete control
[7] = Postemergence, 125 g ai/ha, scale 0 to 100, 0 no effect, 100 complete control
[8] = Postemergence, 250 g ai/ha, scale 0 to 100, 0 no effect, 100 complete control
[9] = Preemergence, 31 g ai/ha, scale 0 to 100 (0 no effect, 100 complete control)
[10] = preemergence, 250 g ai/ha, scale 0 (no effect) to 100 (complete control)
[11] = 62 g ai/ha, Preemergence, scale 0 to 100 (0 no effect, 100 complete control)
[12] = 62 g ai/ha, scale 0 to 100 (0 no effect, 100 complete control)
[13] = 250 g ai/ha, scale 0 to 100, 0 no effect, 100 complete control, 13 to 15 days

SMILES: Cn1nc(C(F)(F)F)c(C[S+]([O-])c2ccc(F)c[n+]2[O-])c1OC(F)F (stereo not drawn) [Compound 58]
- Plant response rating, Pigweed (redroot pigweed; Postemergence, 125 g ai/ha): 70
- Pigweed plant response rating (redroot pigweed; [2]): 90
- Pigweed plant response rating (redroot pigweed; [3]): 80
- Plant response rating, Pigweed (redroot pigweed; Preemergence, 500 g ai/ha): 100
- Plant response rating, Corn (corn; Postemergence, 125 g ai/ha): 50
- Corn plant response rating (corn; [2]): 70
- Corn plant response rating (corn; [3]): 40
- Plant response rating, Corn (corn; Preemergence, 500 g ai/ha): 90
- Blackgrass plant response rating (blackgrass; [4]): 98
- Blackgrass plant response rating (blackgrass; [5]): 100
- Plant response rating (0 to 100), Blackgrass (blackgrass; Postemergence, 31 g ai/ha): 0
- Plant response rating, Blackgrass (blackgrass; [6]): 0
- Plant response rating, Blackgrass (blackgrass; [7]): 30
- Plant response rating, Blackgrass (blackgrass; [8]): 80
- Plant response rating, Blackgrass (blackgrass; [9]): 98
- Blackgrass plant response rating (blackgrass; [10]): 100
- Wheat plant response rating (wheat; [4]): 60
- Wheat plant response rating (wheat; [5]): 85
- Plant response rating (0 to 100), Wheat (wheat; Postemergence, 31 g ai/ha): 0
- Plant response rating (0 to 100), Wheat (wheat; Postemergence, 62 g ai/ha): 0
- Plant response rating, Wheat (wheat; [7]): 20
- Plant response rating, Wheat (wheat; [8]): 60
- Plant response rating, Wheat (wheat; [9]): 10
- Wheat plant response rating (wheat; [10]): 90
- Oat, Wild plant response rating (wild oat; [4]): 45
- Oat, Wild plant response rating (wild oat; [5]): 80
- Plant response rating (0 to 100), Oat, Wild (wild oat; Postemergence, 31 g ai/ha): 0
- Plant response rating, Oat, Wild (wild oat; [6]): 0
- Plant response rating, Oat, Wild (wild oat; [7]): 0
- Plant response rating, Oat, Wild (wild oat; [8]): 5
- Plant response rating, Oat, Wild (wild oat; [9]): 20
- Oat, Wild plant response rating (wild oat; [10]): 80
- Galium plant response rating (catchweed bedstraw; [4]): 70
- Galium plant response rating (catchweed bedstraw; [5]): 100
- Plant response rating, Galium (catchweed bedstraw; Preemergence): 0
- Galium plant response rating (catchweed bedstraw; [10]): 100
- Bermudagrass plant response rating (bermudagrass; [11]): 100
- Bermudagrass plant response rating (bermudagrass; [5]): 100
- Plant response rating (0 to 100), Bermudagrass (bermudagrass; Postemergence, 31 g ai/ha): 0
- Plant response rating, Bermudagrass (bermudagrass; [6]): 0
- Plant response rating, Bermudagrass (bermudagrass; [7]): 20
- Plant response rating, Bermudagrass (bermudagrass; [8]): 40
- Plant response rating, Bermudagrass (bermudagrass; [9]): 100
- Bermudagrass plant response rating (bermudagrass; [10]): 100
- Surinam Grass plant response rating (Surinam grass; [4]): 80
- Surinam Grass plant response rating (Surinam grass; [5]): 85
- Plant response rating (0 to 100), Surinam Grass (Surinam grass; Postemergence, 31 g ai/ha): 0
- Plant response rating (0 to 100), Surinam Grass (Surinam grass; Postemergence, 62 g ai/ha): 0
- Plant response rating, Surinam Grass (Surinam grass; [7]): 10
- Plant response rating, Surinam Grass (Surinam grass; [8]): 45
- Plant response rating, Surinam Grass (Surinam grass; [9]): 70
- Surinam Grass plant response rating (Surinam grass; [10]): 100
- Crabgrass, Large plant response rating (crabgrass; [4]): 100
- Crabgrass, Large plant response rating (crabgrass; [5]): 100
- Plant response rating (0 to 100), Crabgrass, Large (crabgrass; Postemergence, 31 g ai/ha): 0
- Plant response rating, Crabgrass, Large (crabgrass; [6]): 0
- Plant response rating, Crabgrass, Large (crabgrass; [7]): 0
- Plant response rating, Crabgrass, Large (crabgrass; [8]): 45
- Plant response rating, Crabgrass, Large (crabgrass; [9]): 50
- Crabgrass, Large plant response rating (crabgrass; [10]): 100
- Kochia plant response rating (kochia; [4]): 50
- Kochia plant response rating (kochia; [5]): 100
- Plant response rating (0 to 100), Kochia (kochia; Postemergence, 31 g ai/ha): 0
- Plant response rating, Kochia (kochia; [6]): 0
- Plant response rating, Kochia (kochia; [7]): 0
- Plant response rating, Kochia (kochia; [8]): 50
- Plant response rating, Kochia (kochia; [9]): 0
- Kochia plant response rating (kochia; [10]): 100
- Nightshade plant response rating (eastern black nightshade; [4]): 100
- Nightshade plant response rating (eastern black nightshade; [5]): 100
- Plant response rating, Nightshade (eastern black nightshade; [9]): 100
- Nightshade plant response rating (eastern black nightshade; [10]): 100
- Pigweed plant response rating (pigweed; [4]): 100
- Pigweed plant response rating (pigweed; [5]): 100
- Plant response rating (0 to 100), Pigweed (pigweed; Postemergence, 31 g ai/ha): 0
- Plant response rating (0 to 100), Pigweed (pigweed; Postemergence, 62 g ai/ha): 0
- Plant response rating, Pigweed (pigweed; [7]): 5
- Plant response rating, Pigweed (pigweed; [8]): 10
- Plant response rating, Pigweed (pigweed; [9]): 100
- Pigweed plant response rating (pigweed; [10]): 100
- Sunflower plant response rating [1, 4]: 35
- Sunflower plant response rating [1, 5]: 35
- Plant response rating, Sunflower ([1]; Preemergence): 10
- Sunflower plant response rating [1, 10]: 85
- Velvetleaf plant response rating (velvetleaf; [4]): 75
- Velvetleaf plant response rating (velvetleaf; [5]): 100
- Plant response rating (0 to 100), Velvetleaf (velvetleaf; Postemergence, 31 g ai/ha): 0
- Plant response rating (0 to 100), Velvetleaf (velvetleaf; Postemergence, 62 g ai/ha): 0
- Plant response rating, Velvetleaf (velvetleaf; [7]): 5
- Plant response rating, Velvetleaf (velvetleaf; [8]): 5
- Plant response rating, Velvetleaf (velvetleaf; [9]): 5
- Velvetleaf plant response rating (velvetleaf; [10]): 100
- Plant response rating, Rice (rice; [12]): 40
- Plant response rating, Rice (rice; [13]): 65
- Plant response rating, Ducksalad (duck salad; [12]): 70
- Plant response rating, Ducksalad (duck salad; [13]): 80
- Plant response rating, Barnyardgrass (barnyardgrass; [12]): 65
- Plant response rating, Barnyardgrass (barnyardgrass; [13]): 85

SMILES: CCc1cc[n+]([O-])c(S(=O)(=O)Cc2c(C(F)(F)F)nn(C)c2OCC(F)(F)F)c1 [Compound 60]
- Plant response rating, Pigweed (redroot pigweed; Postemergence, 125 g ai/ha): 60
- Pigweed plant response rating (redroot pigweed; [2]): 80
- Pigweed plant response rating (redroot pigweed; [3]): 100
- Plant response rating, Pigweed (redroot pigweed; Preemergence, 500 g ai/ha): 100
- Plant response rating, Corn (corn; Postemergence, 125 g ai/ha): 30
- Corn plant response rating (corn; [2]): 60
- Corn plant response rating (corn; [3]): 0
- Plant response rating, Corn (corn; Preemergence, 500 g ai/ha): 50
- Blackgrass plant response rating (blackgrass; [4]): 90
- Blackgrass plant response rating (blackgrass; [5]): 100
- Plant response rating, Blackgrass (blackgrass; [9]): 85
- Blackgrass plant response rating (blackgrass; [10]): 100
- Wheat plant response rating (wheat; [4]): 15
- Wheat plant response rating (wheat; [5]): 30
- Plant response rating, Wheat (wheat; [9]): 0
- Wheat plant response rating (wheat; [10]): 100
- Oat, Wild plant response rating (wild oat; [4]): 85
- Oat, Wild plant response rating (wild oat; [5]): 90
- Plant response rating, Oat, Wild (wild oat; [9]): 40
- Oat, Wild plant response rating (wild oat; [10]): 98
- Galium plant response rating (catchweed bedstraw; [4]): 100
- Galium plant response rating (catchweed bedstraw; [5]): 100
- Plant response rating, Galium (catchweed bedstraw; Preemergence): 0
- Galium plant response rating (catchweed bedstraw; [10]): 100
- Bermudagrass plant response rating (bermudagrass; [11]): 100
- Bermudagrass plant response rating (bermudagrass; [5]): 100
- Plant response rating, Bermudagrass (bermudagrass; [9]): 100
- Bermudagrass plant response rating (bermudagrass; [10]): 100
- Surinam Grass plant response rating (Surinam grass; [4]): 100
- Surinam Grass plant response rating (Surinam grass; [5]): 100
- Plant response rating, Surinam Grass (Surinam grass; [9]): 95
- Surinam Grass plant response rating (Surinam grass; [10]): 100
- Crabgrass, Large plant response rating (crabgrass; [4]): 100
- Crabgrass, Large plant response rating (crabgrass; [5]): 100
- Plant response rating, Crabgrass, Large (crabgrass; [9]): 100
- Crabgrass, Large plant response rating (crabgrass; [10]): 100
- Kochia plant response rating (kochia; [4]): 100
- Kochia plant response rating (kochia; [5]): 100
- Plant response rating, Kochia (kochia; [9]): 80
- Kochia plant response rating (kochia; [10]): 100
- Nightshade plant response rating (eastern black nightshade; [4]): 80
- Nightshade plant response rating (eastern black nightshade; [5]): 100
- Nightshade plant response rating (eastern black nightshade; [10]): 100
- Pigweed plant response rating (pigweed; [4]): 100
- Pigweed plant response rating (pigweed; [5]): 100
- Plant response rating, Pigweed (pigweed; [9]): 100
- Pigweed plant response rating (pigweed; [10]): 100
- Sunflower plant response rating [1, 4]: 55
- Sunflower plant response rating [1, 5]: 70
- Plant response rating, Sunflower ([1]; Preemergence): 40
- Sunflower plant response rating [1, 10]: 80
- Velvetleaf plant response rating (velvetleaf; [4]): 40
- Velvetleaf plant response rating (velvetleaf; [5]): 100
- Plant response rating, Velvetleaf (velvetleaf; [9]): 0
- Velvetleaf plant response rating (velvetleaf; [10]): 100
- Plant response rating, Rice (rice; [12]): 0
- Plant response rating, Rice (rice; [13]): 20
- Plant response rating, Ducksalad (duck salad; [12]): 0
- Plant response rating, Ducksalad (duck salad; [13]): 40
- Plant response rating, Barnyardgrass (barnyardgrass; [12]): 20
- Plant response rating, Barnyardgrass (barnyardgrass; [13]): 45
